# From patent US20250340565A1, “CD73 INHIBITOR COMPOUNDS” (AdoRx Therapeutics Limited, priority 2022, published 2025)
# Columns and labels:
# [1] = biological target: human (h)CD73 (amino acids Trp27-Lys547) (Homo sapiens, UniProt P21589); assay: CD73 inhibition assay (Malachite Green phosphate detection); format: biochemical; details: 250 pM hCD73, 12.5 μM AMP, 20 min pre-incubation, absorbance 620 nm
# Protocol: Compound inhibition of human (h)CD73 (amino acids Trp27-Lys547, R&D Systems 5795-EN-500) enzymatic activity was tested via the Malachite Green Phosphate Detection Kit (R&D DY996). Experiments were performed in 20 μL Tris buffer (25 mM Tris pH 7.5, 5 mM MgCl2, 0.002% Tween20), with 250 pM of hCD73. Test compounds of interest were prepared in a threefold serial dilution in DMSO and added to the assay to give the appropriate final concentration, with the assay DMSO concentration being 1%. Compounds were pre-incubated for 20 minutes with hCD73 in a 384 well clear plate (Greiner 781101), followed by the addition of adenosine monophosphate (AMP) to 12.5 μM. The enzymatic reaction was carried out for 20 min at room temperature. 5 μL of Malachite kit reagent A was added to stop the reaction (contains 3M H2SO4) and after 10 min, 5 μL of Malachite kit reagent B was added (Malachite Green). After 30 min, absorbance at 620 nm was read on a BMG Pherastar FSX.
# Data were normalised to measurements in the absence of competing compound (0% inhibition) and in the presence of 10 μM control compound (100% inhibition).
# [2] = biological target: CD73 activity in U138-MG cells (Homo sapiens (Human), UniProt P21589); assay: U138-MG inhibition assay (inorganic phosphate from AMP, PiColorLock Gold); format: cell-based; details: 100 μM AMP, 30 min pre-incubation, 1 hour at 37° C.
# Chain of CD73 activity in U138-MG cells (P21589 27-574): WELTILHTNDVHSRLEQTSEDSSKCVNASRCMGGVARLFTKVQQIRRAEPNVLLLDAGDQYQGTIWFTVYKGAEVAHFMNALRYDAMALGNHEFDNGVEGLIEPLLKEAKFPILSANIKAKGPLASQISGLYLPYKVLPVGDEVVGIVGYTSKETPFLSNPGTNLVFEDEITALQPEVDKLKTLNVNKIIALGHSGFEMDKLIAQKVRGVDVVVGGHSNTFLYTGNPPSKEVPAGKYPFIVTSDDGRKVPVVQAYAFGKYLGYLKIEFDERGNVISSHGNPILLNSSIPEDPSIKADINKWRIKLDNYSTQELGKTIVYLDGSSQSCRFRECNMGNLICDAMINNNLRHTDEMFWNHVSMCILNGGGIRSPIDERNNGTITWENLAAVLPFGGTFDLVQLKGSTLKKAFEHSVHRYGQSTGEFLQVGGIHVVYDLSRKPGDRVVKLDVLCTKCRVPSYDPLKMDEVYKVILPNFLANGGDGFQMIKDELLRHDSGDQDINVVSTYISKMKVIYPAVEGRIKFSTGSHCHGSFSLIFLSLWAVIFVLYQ
# Protocol: U138-MG cells from ATCC are cultured in DMEM (Gibco 31966) with 10% FBS. Cells are seeded into 96-well culture plates (5,000 cell/well) in 100 μL of media for 24 hr. Cells are washed twice with 200 μL of assay buffer (20 mM HEPES, pH 7.4; 137 mM NaCl; 5.4 mM KCl; 1.3 mM CaCl2; 4.2 mM NaHCO3; 1 mg/mL glucose) to remove residual inorganic phosphate. CD73 inhibitor is added to each well in 100 μl volume and preincubated for 30 mins at 37° C. An equal volume of AMP substrate (Sigma A1572) is added to each well at a final concentration of 100 μM and incubated at 37° C. for 1 hour. Control wells containing cells but lacking added AMP, define the assay signal equivalent to 100% inhibition of CD73 activity. Supernatant is removed for measurement of inorganic phosphate using the PiColorLock Gold kit (Abcam, ab 270004).
# The IC50 values of test compounds are determined as the inflection point of the sigmoidal concentration response curve.
# CD73 in whole blood = CD73 in whole blood (Homo sapiens (Human), UniProt P21589); assay: Whole blood AMP Glo assay; format: cell-based; details: whole blood of healthy volunteers, 10 μM AMP, 30 min pre-incubation, 15 min at 37° C., levamisole 1.5 mM
# Chain of CD73 in whole blood (P21589 27-574): as above
# Protocol: Blood is drawn from healthy volunteers by venepuncture and anti-coagulated with Lithium Heparin (10 IU/mi). 150 μl of blood is added to U-bottom polypropylene 96-well assay plates pre-filled with 20 μl of compound dilutions prepared in RPMI also containing the Tissue Non-specific Alkaline Phosphatase inhibitor Levamisole (final assay concentration 1.5 mM). Control wells to define uninhibited CD73 contain DMSO in place of compound. Control wells to define complete stabilization of AMP attributable to CD73 contain LY3475070 (CAS: 2375815-63-5) at 30 μM final assay concentration.
# Compounds are pre-incubated with whole blood at 37° C. for 30 minutes. Following this, AMP is added in a 30 μl volume for a final assay concentration of 10 μM, mixed, and the plates are incubated for 15 minutes at 37° C. Final DMSO concentration/well is 0.6% and final volume/well is 200 μL. After incubating with AMP, the plates are placed on ice and then centrifuged at 2000 g for 10 minutes at 4° C. Plasma is removed and then diluted 1:10 with pre-chilled HBSS (Ca2+& Mg2+free) and kept on ice.
# The stabilized AMP concentration in diluted plasma is measured using AMP-Glo kit (Promega), in parallel with a standard curve of known AMP concentrations, with a final volume of 40 μl in white flat bottom half-well 96-well plates (Corning). Signal is measured by Luminescence. The IC50 values of test compounds are determined as the inflection point of the sigmoidal concentration response curve.
IC50 [1],IC50 [2],IC50 (CD73 in whole blood),Structure (SMILES)
103 nM,246 nM,686 nM,"N#Cc1cnc2sc(-c3c[nH]c(=O)[nH]c3=O)cc2c1N1CCC(OCCN2CCCCC2)C1 (stereo not drawn) [Example 11, 2-(2,4-Dioxo-1H-pyrimidin-5-yl)-4-[3-[2-(1-piperidyl)ethoxy]pyrrolidin-1-yl]thieno[2,3-b]pyridine-5-carbonitrile]"
49.2 nM,3.2 nM,1.5 nM,"COC1CN(c2ncnc3nn(-c4c[nH]c(=O)[nH]c4=O)cc23)CC1(F)F (stereo not drawn) [Example 13.11, 5-[4-(3,3-Difluoro-4-methoxy-pyrrolidin-1-yl)pyrazolo[3,4-d]pyrimidin-2-yl]-1H-pyrimidine-2,4-dione]"
16 nM,2.8 nM,38 nM,"CC1(C)CN(c2ncc(Cl)n3nc(-c4c[nH]c(=O)[nH]c4=O)cc23)CC1(F)F [Example 25.8, 5-[7-chloro-4-(3,3-difluoro-4,4-dimethyl-pyrrolidin-1-yl)pyrazolo[1,5-a]pyrazin-2-yl]-1H-pyrimidine-2,4-dione]"
124 nM,4.5 nM,3.52 nM,"O=c1[nH]cc(-n2cc3c(N4CC(F)(F)C5(CCCC5)C4)ncnc3n2)c(=O)[nH]1 [Example 13.3, 5-[4-(4,4-Difluoro-2-azaspiro[4.4]nonan-2-yl)pyrazolo[3,4-d]pyrimidin-2-yl]-1H-pyrimidine-2,4-dione]"
715 nM,2340 nM,8750 nM,"O=c1[nH]cc(-c2cc3c(N4CCC(CO)C4)ncnc3s2)c(=O)[nH]1 (stereo not drawn) [Example 1, 5-[4-[3-(Hydroxymethyl)pyrrolidin-1-yl]thieno[2,3-d]pyrimidin-6-yl]-1H-pyrimidine-2,4-dione]"
31.1 nM,8.6 nM,1.19 nM,"CC1(C)CCN(c2ncnc3nn(-c4c[nH]c(=O)[nH]c4=O)cc23)C1 [Example 13.6, 5-[4-(3,3-Dimethylpyrrolidin-1-yl)pyrazolo[3,4-d]pyrimidin-2-yl]-1H-pyrimidine-2,4-dione]"
44.8 nM,1.8 nM,0.47 nM,"CC1(C)CN(c2ncnc3nn(-c4c[nH]c(=O)[nH]c4=O)cc23)CC1(F)F [Example 13, 5-[4-(3,3-Difluoro-4,4-dimethyl-pyrrolidin-1-yl)pyrazolo[3,4-d]pyrimidin-2-yl]-1H-pyrimidine-2,4-dione]"
152 nM,10.5 nM,1.5 nM,"Cc1nc(N2CC(C)(C)C(F)(F)C2)c2cn(-c3c[nH]c(=O)[nH]c3=O)nc2n1 [Example 23, 5-[4-(3,3-Difluoro-4,4-dimethyl-pyrrolidin-1-yl)-6-methyl-pyrazolo[3,4-d]pyrimidin-2-yl]-1H-pyrimidine-2,4-dione]"
20.8 nM,12.3 nM,32 nM,"CC1(C)CN(c2cncc3nn(-c4c[nH]c(=O)[nH]c4=O)cc23)CC1(F)F [Example 31, 5-[4-(3,3-difluoro-4,4-dimethyl-pyrrolidin-1-yl)pyrazolo[3,4-c]pyridine-2-yl]-1H-pyrimidine-2,4-dione]"
,12 nM,5 nM,"O=c1[nH]cc(-c2cc3c(N4CC(O)C(F)(F)C4)ncc(Cl)n3n2)c(=O)[nH]1 (stereo not drawn) [Example 25.13, 5-[7-Chloro-4-(3,3-difluoro-4-hydroxy-pyrrolidin-1-yl)pyrazolo[1,5-a]pyrazin-2-yl]-1H-pyrimidine-2,4-dione]"
115 nM,12 nM,20 nM,"CC1(C)CN(c2ccnc3nn(-c4c[nH]c(=O)[nH]c4=O)cc23)CC1(F)F [Example 30, 5-[4-(3,3-difluoro-4,4-dimethyl-pyrrolidin-1-yl)pyrazolo[3,4-b]pyridine-2-yl]-1H-pyrimidine-2,4-dione]"
87.3 nM,734 nM,4010 nM,"CC1(C)CN(c2ncnc3sc(-c4c[nH]c(=O)[nH]c4=O)cc23)CC1(F)F [Example 4, 5-[4-(3,3-Difluoro-4,4-dimethyl-pyrrolidin-1-yl)thieno[2,3-d]pyrimidin-6-yl]-1H-pyrimidine-2,4-dione]"
22.9 nM,5 nM,37 nM,"O=c1[nH]cc(-n2cc3c(N4CC(F)(F)C5(CCC5)C4)ncc(F)c3n2)c(=O)[nH]1 [Example 26.1, 5-[4-(8,8-difluoro-6-azaspiro[3.4]octan-6-yl)-7-fluoro-pyrazolo[4,3-c]pyridin-2-yl]-1H-pyrimidine-2,4-dione]"
489 nM,717 nM,3160 nM,"O=c1[nH]cc(-c2cc3c(N4CCC(OCCO)C4)ncnc3s2)c(=O)[nH]1 (stereo not drawn) [Example 1.3, 5-[4-[3-(2-Hydroxyethoxy)pyrrolidin-1-yl]thieno[2,3-d]pyrimidin-6-yl]-1H-pyrimidine-2,4-dione]"
34.2 nM,38.6 nM,155 nM,"CC1(C)CN(c2nccn3nc(-c4c[nH]c(=O)[nH]c4=O)cc23)CC1(F)F [Example 25, 5-[4-(3,3-Difluoro-4,4-dimethyl-pyrrolidin-1-yl)pyrazolo[1,5-a]pyrazin-2-yl]-1H-pyrimidine-2,4-dione]"
20 nM,1.9 nM,26 nM,"O=c1[nH]cc(-n2cc3c(N4CC(F)(F)C5(CCC5)C4)ncc(Cl)c3n2)c(=O)[nH]1 [Example 28.2, 5-[7-chloro-4-(8,8-difluoro-6-azaspiro[3.4]octan-6-yl)pyrazolo[4,3-c]pyridin-2-yl]-1H-pyrimidine-2,4-dione]"
677 nM,2310 nM,8760 nM,"O=c1[nH]cc(-c2cc3c(N4CCC(CCO)C4)ncnc3s2)c(=O)[nH]1 (stereo not drawn) [Example 1.1, 5-[4-[3-(2-Hydroxyethyl)pyrrolidin-1-yl]thieno[2,3-d]pyrimidin-6-yl]-1H-pyrimidine-2,4-dione]"
58.2 nM,68.7 nM,1240 nM,"O=c1[nH]cc(-c2cc3c(N4CC(F)(F)C5(CCC5)C4)ncnc3o2)c(=O)[nH]1 [Example 19, 5-[4-(8,8-Difluoro-6-azaspiro[3.4]octan-6-yl)furo[2,3-d]pyrimidin-6-yl]-1H-pyrimidine-2,4-dione]"
73.9 nM,20.9 nM,7.58 nM,"CCC1(CC)CCN(c2ncnc3nn(-c4c[nH]c(=O)[nH]c4=O)cc23)C1 [Example 13.7, 5-[4-(3,3-Diethylpyrrolidin-1-yl)pyrazolo[3,4-d]pyrimidin-2-yl]-1H-pyrimidine-2,4-dione]"
,39 nM,450 nM,"CC1(C)CCN(c2ncc(F)n3nc(-c4c[nH]c(=O)[nH]c4=O)cc23)C1 [Example 25.17, 5-[4-(3,3-dimethylpyrrolidin-1-yl)-7-fluoro-pyrazolo[1,5-a]pyrazin-2-yl]-1H-pyrimidine-2,4-dione]"
,11 nM,78 nM,"CC1(C)CCN(c2ncc(Cl)n3nc(-c4c[nH]c(=O)[nH]c4=O)cc23)C1 [Example 25.16, 5-[7-chloro-4-(3,3-dimethylpyrrolidin-1-yl)pyrazolo[1,5-a]pyrazin-2-yl]-1H-pyrimidine-2,4-dione]"

Structure (SMILES),IC50 [1],IC50 [2],IC50 (CD73 in whole blood)
"O=c1[nH]cc(-c2nc3ncnc(N4CCC(OCCN5CCCCC5)C4)c3s2)c(=O)[nH]1 (stereo not drawn) [Example 6, 5-[7-[3-[2-(1-Piperidyl)ethoxy]pyrrolidin-1-yl]thiazolo[4,5-d]pyrimidin-2-yl]-1H-pyrimidine-2,4-dione]",57.3 nM,18.7 nM,27.5 nM
